What was measured:
Format in all cases: cell-based, human
[1] = system: control and ERCC6L2^−/− cells; assay: Nascent DNA degradation assay (DNA combing); conditions: 3 mM hydroxyurea, 4 h; IdU/CldU track ratio; N(tracks)>700
Description: Control and ERCC6L2^−/− cells were labeled with 100 μM CldU, followed by 100 μM IdU in the presence of 10 μM Polα inhibitor CD437. Each pulse lasted 40 min. Cells were then trypsinised and embedded in agarose plugs using a kit from Genomic Vision according to the manufacturer’s instructions. DNA was extracted and purified from the agarose plugs, and stretched onto silanised coverslips with the molecular combing system (Genomic Vision). CldU was detected with rat anti-BrdU antibody (Abcam, BU1/75) and Alexa Fluor 594 conjugated secondary antibody (Thermo Fisher Scientific). ldU was detected with mouse anti-BrdU antibody (Becton Dickinson, BD44) and Alexa Fluor 488 conjugated secondary antibody (Thermo Fisher Scientific). […] More than 1500 tracks were analyzed per condition.
For nascent DNA degradation assay, cells were sequentially incubated with 100 μM CldU and 100 μM IdU. […] More than 700 tracks were analyzed per condition. […]
Error bars represent standard errors from 3 independent experiments. […] U2OS cells were transfected with YFP-ERCC6L2 constructs and monitored by live cell imaging following laser induced DNA damage. […]
(F) Valida?on of siRNA against CTC1 and C20orf196. […] For BRCA1, RIF1, REV7, 53BP1, BLM and CtIP, cells were transfected as in F, and endogenous proteins were detected by speciﬁc an?bodies. […] Expression was detected by an?-FLAG or an?-GFP an?bodies, as indicated. […]

[2] = system: control and ERCC6L2^−/− U2OS cells; assay: Clonogenic survival assay; conditions: 11 days, 3 independent experiments, ERCC6L2^−/− vs control U2OS
Description: Cells were seeded in 6-well plates (approximately 700 cells/well) and either left untreated or treated with the indicated concentrations of genotoxic agents. Cells were then grown for 11 days to allow colony formation. Colonies were stained with 5 mg/ml crystal violet (Sigma-Aldrich) solution in 25% methanol for 30 min. Pictures were taken using a Nikon D3200 camera and images were analyzed using FIJI software. FIJI’s ‘Analyze Particles’ function was used to quantify numbers of colonies. Survival was calculated relative to untreated cells. Each experiment was performed in technical triplicates, and data shown represent combined data from at least three independent experiments.

pRPA32 = assay: pRPA levels (ssDNA marker); conditions: 50 µg/ml phleomycin for 12 h; vs control cells
Description: For quantitative analysis of pRPA, RAD51, γH2AX, and EdU foci, non-overlapping images were acquired using a 20x objective lens. Image analysis was performed using CellProfiler.[98] For quantification of TRF1-and CENP-C-positive micronuclei, random non-overlapping images were acquired, and Z-stacks were further collected for each micronucleus to examine the presence of TRF1 and CENP-C foci. […]
(§1) 0.8 ControlERCC6L2ControlERCC6L2
(§2) 0.4 28 kDa short exposure […]
(§3) Figure S12. DNA damage-induced changes in control and ERCC6L2 -/- cells. Related to Figure 6.
(§4) (A) Box and whisker plots measuring average pRPA intensi?es in control and ERCC6L2-/- cells. Cells were either untreated, or exposed to 50 µg /ml phleomycin for 12 h, before ﬁxa?on and staining. N(images)>180, N(cells)>28,000. (B) Representa?ve images of phleomycin treated cells used for quan?ﬁca?ons in A. Shown are expressions of indicated proteins, with zoomed images of cells in coloured frames.
(§5) (C) Analysis of pRPA levels by western blot. Treatments were as in A. (D) Box and whisker plots measuring average pKAP1 intensi?es in control and ERCC6L2-/- cells. Cells were either untreated, or exposed to 50 µg /ml phleomycin for 12 h, before ﬁxa?on and staining.
N(images)>180, N(cells)>28,000. […]

pKAP1 (KAP1 S824) = assay: pKAP1 levels; conditions: 50 µg/ml phleomycin for 12 h; vs control cells
Description: as §1, §2, §3, §4, §5
N(images)>180, N(cells)>28,000. (E) Representa?ve images of phleomycin treated cells used for quan?ﬁca?ons in D. Shown are expressions of indicated proteins, with zoomed images of cells in coloured frames. (F) Analysis of pKAP1 levels by western blot. Treatments were as in D. (G) Box and whisker plots measuring KAP1 foci in control and ERCC6L2-/- cells. Cells were either untreated, or exposed to 50 µg /ml phleomycin for 12 h, before ﬁxa?on and staining. N(images)>180, N(cells)>28,000. B, E, H: Scale bar: 10 µm. A, D, G: Sta?s?cs […]

CENP-B = CENP-B intensities by QIBC after genotoxic stress; conditions: 1 h, 5 h recovery, N(cells)>30,000
[3] = system: control and ERCC6L2^−/− U2OS cells; assay: Micronuclei formation; conditions: cells grown with damaging agents for 2 days; ERCC6L2^−/− vs control U2OS
Description: absence or presence of damaging agents for 2 days. CENPC and 53BP1 were used as centromeric and DSB markers, respec?vely. N(images) >140, N(cells)>50,000. (B) Quan?ﬁca?on of micronuclei subtypes in control and ERCC6L2-/- U2OS cells, as indicated. 53BP1 or γH2AX were used as DSB markers; CENP-C was used as a centromere marker; Telomeric repeat-binding factor 2-interac?ng protein 1 (RAP1) was used as a telomere marker. N(images)>400, N(cells)>30,000.

| Molecule | nascent DNA protection, control vs ERCC6L2^−/− [1] | sensitivity of ERCC6L2-deficient cells [2] | pRPA levels in treated ERCC6L2^−/− cells (pRPA32) | pKAP1 levels in treated ERCC6L2^−/− cells (pKAP1 (KAP1 S824)) | CENP-B intensities after 25 µg/ml phleomycin (CENP-B) | micronuclei formation in ERCC6L2-deficient cells [3] |
| --- | --- | --- | --- | --- | --- | --- |
| NC(=O)NO [hydroxyurea] | did not observe significant differences in nascent DNA protection |  |  |  |  |  |
| phleomycin |  | increased sensitivity | increased levels of pRPA | decreased levels of pKAP1 | not aﬀected by DNA damage | increased frequency of micronuclei formation |

Reference: article PMC12003248, “ERCC6L2 mitigates replication stress and promotes centromere stability” (Cell Reports, 2023)
